Laboratory results from the NIST ThermoML archive (doi:10.1016/j.jct.2014.07.003).
Numbers after ± are expanded uncertainties.

Assay: mn = molality of the nth substance listed, in mol/kg
Conditions: 99 kPa, Liquid, Alternating current cell with electrodes

CCCCCCCCCCCC[N+](C)(C)C.[Br-] [dodecyltrimethylammonium bromide] + O
electrical conductivity [S/m]
Conditions	303.15 K	308.15 K	313.15 K	318.15 K
m1 = 0.0015	–	0.0153 ± 0.0064	0.0169 ± 0.007	0.018 ± 0.0073
m1 = 0.003	–	0.0286 ± 0.0061	0.032 ± 0.0067	0.034 ± 0.0069
m1 = 0.0045	–	0.042 ± 0.0062	0.0469 ± 0.0066	0.049 ± 0.007
m1 = 0.0059	–	0.0547 ± 0.0062	0.0605 ± 0.0067	0.0645 ± 0.0067
m1 = 0.0073	–	0.0675 ± 0.0061	0.0749 ± 0.0066	0.0771 ± 0.0063
m1 = 0.0087	–	0.0795 ± 0.0057	0.088 ± 0.0064	0.0905 ± 0.0063
m1 = 0.0101	–	0.0903 ± 0.0055	0.101 ± 0.0062	0.103 ± 0.0061
m1 = 0.0116	–	0.102 ± 0.0056	0.114 ± 0.006	0.116 ± 0.006
m1 = 0.013	–	0.113 ± 0.0055	0.126 ± 0.0054	0.128 ± 0.0055
m1 = 0.0144	–	0.123 ± 0.005	0.135 ± 0.0046	0.138 ± 0.0049
m1 = 0.0157	0.129 ± 0.0039	0.131 ± 0.0042	0.142 ± 0.0039	0.145 ± 0.0042
m1 = 0.017	0.134 ± 0.0035	0.136 ± 0.0036	0.146 ± 0.0036	0.15 ± 0.0035
m1 = 0.0184	0.137 ± 0.0033	0.14 ± 0.0033	0.15 ± 0.0035	0.154 ± 0.0034
m1 = 0.0197	0.14 ± 0.0033	0.142 ± 0.0033	0.154 ± 0.0033	0.158 ± 0.0034
m1 = 0.021	0.143 ± 0.0033	0.145 ± 0.0033	0.157 ± 0.0032	0.161 ± 0.0033
m1 = 0.0223	0.146 ± 0.0033	0.148 ± 0.0034	0.159 ± 0.0033	0.163 ± 0.0033
m1 = 0.0236	0.149 ± 0.0032	0.152 ± 0.0034	0.162 ± 0.0032	0.167 ± 0.0033
m1 = 0.0249	0.151 ± 0.0032	0.154 ± 0.0031	0.164 ± 0.0032	0.17 ± 0.0032
m1 = 0.0274	0.155 ± 0.0031	0.158 ± 0.0032	0.168 ± 0.0031	0.174 ± 0.0032
m1 = 0.0286	0.157 ± 0.0032	0.16 ± 0.0032	0.17 ± 0.0032	0.177 ± 0.0032
m1 = 0.0298	0.159 ± 0.0031	0.162 ± 0.0037	0.172 ± 0.0031	0.179 ± 0.0032
